Reference: patent US9399646B2 (Genentech, Inc., priority 2010, dated 2016)
pIC50: −log10 of the molar value.

Tests used:
[1] = tested on: MCF-7 cells; experiment: Breast cancer cell viability assay (CellTiter-Glo, 5 days); type: cell-based; conditions: 5 days' compound exposure; for pIC50: Homo sapiens, MCF7, 120 h
In short: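 Eleven-point semilog compound series, final 0.3-0.000003 μM, added to overnight-adhered MCF-7 cells (320/well; RPMI, 10% FBS, 20 mM HEPES) for 5 days. Viability read by CellTiter-Glo luminescence, background from medium without cells subtracted, expressed relative to untreated cells.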

[2] = biological target: T1, ER-α in MCF-7 cells (Homo sapiens, UniProt P03372); experiment: Breast cancer cell ER-α in cell western assay (SP1); type: cell-based; set-up: endogenous in cells; host or cells: MCF-7; conditions: 4 or 24 hr post compound addition; for Emax: MCF7, SP1 antibody, read-out: ER-α In Cell Western Assay (SP1) Max Response; for DC50: SP1 antibody, read-out: ER-α In Cell Western Assay (SP1) IC50
T1 sequence (P03372 1-595): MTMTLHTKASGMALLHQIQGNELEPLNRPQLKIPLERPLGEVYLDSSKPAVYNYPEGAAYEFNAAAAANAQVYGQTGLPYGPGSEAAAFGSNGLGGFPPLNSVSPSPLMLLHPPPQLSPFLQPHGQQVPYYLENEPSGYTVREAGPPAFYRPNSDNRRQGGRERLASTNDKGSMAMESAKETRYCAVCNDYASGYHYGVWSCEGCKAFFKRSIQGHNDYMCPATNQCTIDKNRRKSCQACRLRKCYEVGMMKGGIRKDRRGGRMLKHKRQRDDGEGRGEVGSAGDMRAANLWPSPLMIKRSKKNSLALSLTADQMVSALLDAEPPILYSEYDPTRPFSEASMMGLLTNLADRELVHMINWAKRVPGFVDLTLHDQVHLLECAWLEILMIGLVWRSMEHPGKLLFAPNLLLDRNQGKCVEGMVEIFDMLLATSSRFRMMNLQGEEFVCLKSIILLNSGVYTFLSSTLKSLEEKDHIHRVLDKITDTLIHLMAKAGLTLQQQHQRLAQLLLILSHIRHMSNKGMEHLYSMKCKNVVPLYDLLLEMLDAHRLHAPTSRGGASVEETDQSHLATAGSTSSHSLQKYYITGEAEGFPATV
In short: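 MCF-7, charcoal-stripped FBS/RPMI, 3200 cells/well, adhered overnight. Formalin fix, SP1 Ab o/n 4 °C, IRDye 800CW + DRAQ5; % ER = 800/700 ratio vs untreated.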

| SMILES | pIC50 [1] | Emax [2] [%] | DC50 [2] [µM] | MCF7 Viability Assay Max Response [1] |
| --- | --- | --- | --- | --- |
| CC/C(=C(/c1ccc(/C=C/C(=O)O)cc1)c1ccc2ncsc2c1)c1ccccc1 [Compound 130, (E)-3-(4-((E)-1-(Benzo[d]thiazol-6-yl)-2-phenylbut-1-en-1-yl)phenyl)acrylic acid] | < 7.00 | ≥ 40 | > 0.1 | ++ (++ = a single % value ≧ 40%) |
| CC/C(=C(/c1ccc(/C=C/C(=O)O)cc1)c1cccc2[nH]c(=O)ccc12)c1ccccc1 [Compound 102, (E)-3-(4-((E)-1-(2-Oxo-1,2-dihydroquinolin-5-yl)-2-phenylbut-1-en-1-yl)phenyl)acrylic acid] | < 7.00 | ≥ 40 | > 0.1 | + (+ = a single % value < 40%) |
| CC/C(=C(/c1ccc(/C=C/C(=O)O)cc1)c1ccc2sc(C)nc2c1)c1ccccc1 [Compound 159, (E)-3-(4-((E)-1-(2-Methylbenzo[d]thiazol-5-yl)-2-phenylbut-1-en-1-yl)phenyl)acrylic acid] | < 7.00 | ≥ 40 | > 0.1 | ++ (++ = a single % value ≧ 40%) |
| CC/C(=C(/c1ccc(/C=C/C(=O)O)cc1)c1ccn2nccc2c1)c1ccccc1 [Compound 125, (E)-3-(4-((E)-2-Phenyl-1-(pyrazolo[1,5-a]pyridin-5-yl)but-1-en-1-yl)phenyl)acrylic acid] | < 7.00 | ≥ 40 | > 0.1 | ++ (++ = a single % value ≧ 40%) |
| CC/C(=C(/c1ccc(/C=C/C(=O)O)cc1)c1ccc2c[nH]c(=O)cc2c1)c1ccccc1 [Compound 90, (E)-3-(4-((E)-1-(3-Oxo-2,3-dihydroisoquinolin-6-yl)-2-phenylbut-1-en-1-yl)phenyl)acrylic acid] | < 7.00 | ≥ 40 | > 0.1 | ++ (++ = a single % value ≧ 40%) |
| CC/C(=C(/c1ccc(/C=C/C(=O)O)cc1)c1ccc2[nH]ncc2c1)c1ccc(-c2cnn(C)c2)cc1 [Compound 384, (E)-3-(4-((E)-1-(1H-Indazol-5-yl)-2-(4-(1-methyl-1H-pyrazol-4-yl)phenyl)but-1-en-1-yl)phenyl)acrylic acid] | < 7.00 | ≥ 40 | > 0.1 | ++ (++ = a single % value ≧ 40%) |
| CC/C(=C(/c1ccc(/C=C/C(=O)O)cc1)c1cnn2ccccc12)c1ccccc1 [Compound 148, (E)-3-(4-((E)-2-Phenyl-1-(pyrazolo[1,5-a]pyridin-3-yl)but-1-en-1-yl)phenyl)acrylic acid] | < 7.00 | ≥ 40 | > 0.1 | ++ (++ = a single % value ≧ 40%) |
| CC/C(=C(/c1ccc(/C=C/C(=O)O)cc1)c1ccc2scnc2c1)c1ccccc1Cl [Compound 280, (E)-3-(4-((E)-1-(Benzo[d]thiazol-5-yl)-2-(2-chlorophenyl)but-1-en-1-yl)phenyl)acrylic acid] | ≥ 7.00 | ≥ 40 | ≤ 0.1 | ++ (++ = a single % value ≧ 40%) |
| O=C(O)/C=C/c1ccc(/C(=C(\c2ccccc2)C2CCC2)c2ccc3scnc3c2)cc1 [Compound 286, (E)-3-(4-((E)-1-(Benzo[d]thiazol-5-yl)-2-cyclobutyl-2-phenylvinyl)phenyl)acrylic acid] | ≥ 7.00 | ≥ 40 | ≤ 0.1 | ++ (++ = a single % value ≧ 40%) |
| CC/C(=C(/c1ccc(/C=C/C(=O)O)cc1)c1ccc2[nH]ncc2c1)c1ccc(S(=O)(=O)C(F)(F)F)cc1 [Compound 288] | < 7.00 | ≥ 40 | ≤ 0.1 | ++ (++ = a single % value ≧ 40%) |

Now from value to compound, other results behind:

| pIC50 [1] | Emax [2] [%] | DC50 [2] [µM] | SMILES | MCF7 Viability Assay Max Response [1] |
| --- | --- | --- | --- | --- |
| ≥ 7.00 | ≥ 40 | ≤ 0.1 | CC/C(=C(/c1ccc(/C=C/c2noc(=O)[nH]2)cc1)c1ccc2[nH]ncc2c1)c1ccc(F)cc1Cl [Compound 437, 3-((E)-4-((E)-2-(2-Chloro-4-fluorophenyl)-1-(1H-indazol-5-yl)but-1-en-1-yl)styryl)-1,2,4-oxadiazol-5(4H)-one] | ++ (++ = a single % value ≧ 40%) |
| ≥ 7.00 | ≥ 40 | ≤ 0.1 | CC/C(=C(/c1ccc(/C=C/C(=O)O)cc1)c1ccc2scnc2c1)c1ccc(F)cc1C [Compound 282, (E)-3-(4-((E)-1-(Benzo[d]thiazol-5-yl)-2-(4-fluoro-2-methylphenyl)but-1-en-1-yl)phenyl)acrylic acid] | ++ (++ = a single % value ≧ 40%) |
| ≥ 7.00 | ≥ 40 | ≤ 0.1 | CC/C(=C(/c1ccc(/C=C/C(=O)O)cc1)c1ccc2c(cnn2C(=O)C(C)(C)C)c1)c1ccc(F)cc1Cl [Compound 405, (E)-3-(4-((E)-2-(2-Chloro-4-fluorophenyl)-1-(1-pivaloyl-1H-indazol-5-yl)but-1-en-1-yl)phenyl)acrylic acid] | ++ (++ = a single % value ≧ 40%) |
| ≥ 7.00 | ≥ 40 | ≤ 0.1 | CC/C(=C(/c1ccc(/C=C/C(=O)O)cc1)c1ccc2[nH]ncc2c1)c1ccncc1C(F)(F)F [Compound 304, (E)-3-(4-((E)-1-(1H-Indazol-5-yl)-2-(3-(trifluoromethyl)pyridin-4-yl)but-1-en-1-yl)phenyl)acrylic acid] | ++ (++ = a single % value ≧ 40%) |
| ≥ 7.00 | ≥ 40 | ≤ 0.1 | CC/C(=C(/c1ccc(/C=C/C(=O)O)cc1)c1ccc2c(cnn2C(C)=O)c1)c1ccc(F)cc1Cl [Compound 403, (E)-3-(4-((E)-1-(1-Acetyl-1H-indazol-5-yl)-2-(2-chloro-4-fluorophenyl)but-1-en-1-yl)phenyl)acrylic acid] | ++ (++ = a single % value ≧ 40%) |
| ≥ 7.00 | ≥ 40 | ≤ 0.1 | CC/C(=C(/c1ccc(/C=C/C(=O)O)cc1)c1ccc2[nH]ncc2c1)c1cccc(Oc2cccc(S(C)(=O)=O)c2)c1 [Compound 321, (E)-3-(4-((E)-1-(1H-Indazol-5-yl)-2-(3-(3-(methylsulfonyl)phenoxy)phenyl)but-1-en-1-yl)phenyl)acrylic acid] | ++ (++ = a single % value ≧ 40%) |
| ≥ 7.00 | ≥ 40 | ≤ 0.1 | CC/C(=C(/c1ccc(/C=C/c2noc(=S)[nH]2)cc1)c1ccc2[nH]ncc2c1)c1ccc(F)cc1Cl [Compound 441, 3-((E)-4-((E)-2-(2-Chloro-4-fluorophenyl)-1-(1H-indazol-5-yl)but-1-en-1-yl)styryl)-1,2,4-oxadiazole-5(4H)-thione] | + (+ = a single % value < 40%) |
| ≥ 7.00 | ≥ 40 | ≤ 0.1 | CC/C(=C(/c1ccc(/C=C/C(=O)O)cc1)c1ccc2[nH]ncc2c1)c1cccc(-c2cccnc2)c1 [Compound 393, (E)-3-(4-((E)-1-(1H-Indazol-5-yl)-2-(3-(pyridin-3-yl)phenyl)but-1-en-1-yl)phenyl)acrylic acid] | ++ (++ = a single % value ≧ 40%) |
| ≥ 7.00 | ≥ 40 | ≤ 0.1 | CC/C(=C(/c1ccc(/C=C/C(=O)O)cc1)c1ccc2[nH]ncc2c1F)c1cccc(Oc2ccccn2)c1 [Compound 375, (E)-3-(4-((E)-1-(4-Fluoro-1H-indazol-5-yl)-2-(3-(pyridin-2-yloxy)phenyl)but-1-en-1-yl)phenyl)acrylic acid] | ++ (++ = a single % value ≧ 40%) |
| ≥ 7.00 | ≥ 40 | ≤ 0.1 | CC/C(=C(/c1ccc(/C=C/C(=O)O)cc1)c1ccc2[nH]ncc2c1)c1ccc(OCCCOC)cc1 [Compound 340, (E)-3-(4-((E)-1-(1H-Indazol-5-yl)-2-(4-(3-methoxypropoxy)phenyl)but-1-en-1-yl)phenyl)acrylic acid] | ++ (++ = a single % value ≧ 40%) |
| ≥ 7.00 | ≥ 40 | ≤ 0.1 | O=C(O)/C=C/c1ccc(/C(=C(\c2ccncc2Cl)C2CCC2)c2ccc3[nH]nc(F)c3c2)cc1 [Compound 307, (E)-3-(4-((E)-2-(3-Chloropyridin-4-yl)-2-cyclobutyl-1-(3-fluoro-1H-indazol-5-yl)vinyl)phenyl)acrylic acid] | ++ (++ = a single % value ≧ 40%) |
